As usually defined, the MIC is the lowest concentration found to suppress growth. A word on the IC50: it is the concentration at which inhibition is half-maximal. Low readings indicate greater potency, high ones weaker potency. Broadly, the ED50 is the dose at which the effect has come halfway, by size or by number of responders.

The values that follow come from ChEMBL document CHEMBL1149970, “Novel dithiocarbamate carbapenems1 with anti-MRSA activity” (Bioorg Med Chem Lett, 1997).

In brackets after ≈: the same amount, converted by molar mass.

Data set [1] in a line: Compound was measured for binding rate for human serum at a carbapenem concentration of 10 ug/mL. The data set is classed as ADME. The following applies: read-out: Protein binding (converted).
In data set [2] the target is T1, Dipeptidase 1 (Sus scrofa) (UniProt P22412).
T1 sequence (whole entry): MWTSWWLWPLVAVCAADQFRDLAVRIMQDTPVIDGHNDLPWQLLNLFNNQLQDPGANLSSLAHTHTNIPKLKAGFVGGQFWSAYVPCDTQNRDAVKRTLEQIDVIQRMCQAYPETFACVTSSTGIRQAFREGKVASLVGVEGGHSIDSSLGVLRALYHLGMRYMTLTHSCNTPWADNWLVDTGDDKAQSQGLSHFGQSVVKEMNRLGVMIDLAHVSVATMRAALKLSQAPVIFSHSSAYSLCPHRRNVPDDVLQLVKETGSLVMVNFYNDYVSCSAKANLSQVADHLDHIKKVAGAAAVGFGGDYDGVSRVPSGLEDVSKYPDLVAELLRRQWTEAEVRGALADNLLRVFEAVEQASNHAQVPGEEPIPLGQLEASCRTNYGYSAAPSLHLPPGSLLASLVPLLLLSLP
The data set can be described thus: Relative rate of hydrolysis of porcine renal dehydropeptidase-I (DHP-I) to imipenem. The data set is classed as functional.

Data set [3] concerns the target T1, Dipeptidase 1 (Sus scrofa). The data set can be described thus: Compound was measured for DHP-I susceptibility. The data set is classed as functional.
A further data set has as its system Enterococcus faecalis. Description: In vitro antibacterial activity against Enterococcus faecalis MB4996 organism. The data set is classed as functional.
The subject of a further data set is Escherichia coli. Description: In vitro antibacterial activity against Escherichia coli NIHJ JC2 organism. The data set is classed as functional.
The species entered for a further data set is Mus musculus. The data set can be described thus: Compound was measured for binding rate for mouse serum at a carbapenem concentration of 10 ug/mL. The data set is classed as functional.
Data set [4] in a line: (§1) PBP-2'' affinity was determined by the competition assay with [14C]benzylpenicillin using membrane isolated from MRSA BB6294 strain. The data set is classed as functional, Staphylococcus aureus.
Another data set has as its system Pseudomonas aeruginosa. The data set can be described thus: In vitro antibacterial activity against Pseudomonas aeruginosa MB5002 organism. The data set is classed as functional.
Data set [5] deals with Rattus norvegicus. The data set can be described thus: Epileptogenicity of compound was measured at 100 ug/rat head by the rat intraventricular assay; 1/5. The data set is classed as functional.
The test system of data set [6] is Staphylococcus epidermidis. The data set can be described thus: In vitro antibacterial activity against Staphylococcus epidermidis MB5181a organism. The following applies: Staphylococcus epidermidis; read-out: MIC. The data set is classed as functional.
In data set [7] the test system is Staphylococcus aureus. The data set can be described thus: Compound was tested in vivo for its anti-methicillin-resistant staphylococcus aureus(MRSA). The data set is classed as functional.
Data set [8] relates to Staphylococcus aureus. The data set can be described thus: In vitro antibacterial activity against staphylococcus aureus 209P NIHJ JC1 organism. The data set is classed as functional.
In data set [9] the test system is Staphylococcus aureus. The data set can be described thus: In vitro antibacterial activity against staphylococcus aureus BB6294 organism (Methicillin-resistant strain). The data set is classed as functional.
In data set [10] the test system is Staphylococcus aureus. Description: In vitro antibacterial activity against staphylococcus aureus CSa1009 (Methicillin-resistant strain and b beta-Lactamase producing strain). The data set is classed as functional.
In data set [11] the test system is Staphylococcus aureus. Description: Compound was tested in vitro for its anti-methicillin-resistant staphylococcus aureus(MRSA); 3.13-6.25. The data set is classed as functional.
Data set [12] concerns Rattus norvegicus. Description: Epileptogenicity of compound was measured at 100 ug/rat head by the rat intraventricular assay; 0/5. The data set is classed as functional, Cerebral ventricle.
Data set [13] deals with Staphylococcus aureus. The data set can be described thus: Compound was tested in vitro for its anti-methicillin-resistant staphylococcus aureus(MRSA); 0.78-3.13. The data set is classed as functional.
Data set [14] deals with Staphylococcus aureus. The data set is described as §1. The data set is classed as functional.

`C[C@@H](O)[C@H]1C(=O)N2C(C(=O)O)=C(SC(=S)N3CCCC3)[C@H](C)[C@H]12`: the fraction unbound at 10 ug/mL in data set [1] was 0.06. Also, the DHP-I susceptibility in data set [2] and in [3] was 3.18 in each case. The MIC is 12.5 µg/mL (≈ 35.1 µM) against Enterococcus faecalis; 6.25 µg/mL (≈ 17.5 µM) against Escherichia coli; more than 25 µg/mL in the data set with Pseudomonas aeruginosa; 3.13 µg/mL (≈ 8.78 µM) in data set [6]; 12 ng/mL (≈ 0.0337 µM) with Staphylococcus aureus [8]; 3.13 µg/mL (≈ 8.78 µM) in the data set with Staphylococcus aureus [9]. Moreover, the figures for the MIC against Staphylococcus aureus [10] and in the data set with Staphylococcus aureus [11] were 6.25 µg/mL (≈ 17.5 µM) and 4.04 µg/mL (≈ 11.3 µM), respectively. Moreover, the PPB in the data set listed under Mus musculus amounted to 95%. Moreover, the IC50 in data set [4] is 5.6 µg/mL (≈ 15.7 µM). Moreover, the Epileptogenicity in the data set with Rattus norvegicus [5] is 1. Further, in the data set with Staphylococcus aureus [7], the ED50 is 6.24 mg/kg.
Regarding `C[C@@H](O)[C@H]1C(=O)N2C(C(=O)O)=C(SC(=S)N(C)Cc3cccc4ccccc34)[C@H](C)[C@H]12`, the fraction unbound at 10 ug/mL in data set [1] is 0.01. The DHP-I susceptibility in data set [2] and in data set [3] was 4.41 each time. The minimum inhibitory concentration (MIC) in the data set on Enterococcus faecalis was 1.56 µg/mL (≈ 3.42 µM); with Escherichia coli, 25 µg/mL (≈ 54.8 µM); in the data set with Pseudomonas aeruginosa, more than 25 µg/mL; in data set [6] it was 0.39 µg/mL (≈ 0.854 µM); with Staphylococcus aureus [8], less than 6 ng/mL; with Staphylococcus aureus [9], 0.78 µg/mL (≈ 1.71 µM). Further, the MIC against Staphylococcus aureus [10] turned out to be 1.56 µg/mL (≈ 3.42 µM); in the data set with Staphylococcus aureus [13] it was 1.15 µg/mL (≈ 2.52 µM). For the same molecule, the PPB in the data set filed under Mus musculus is 99%. The molecule also came in with an Epileptogenicity in the data set with Rattus norvegicus [12] of 0. The median effective dose (ED50) in the data set on Staphylococcus aureus [7] is more than 50 mg/kg.
As for `C[C@@H](O)[C@H]1C(=O)N2C(C(=O)O)=C(SCCNC=N)C[C@H]12` [IMIPENEM ANHYDROUS], the DHP-I susceptibility in [2] was found to be 1. The MIC against Enterococcus faecalis was 0.78 µg/mL (≈ 2.61 µM); against Escherichia coli, 0.1 µg/mL (≈ 0.334 µM); with Pseudomonas aeruginosa, 1.56 µg/mL (≈ 5.21 µM); in [6], 100 µg/mL (≈ 334 µM); in the data set on Staphylococcus aureus [8], less than 6 ng/mL; in the data set with Staphylococcus aureus [9], 100 µg/mL (≈ 334 µM). In the data set with Staphylococcus aureus [10], the MIC amounted to 100 µg/mL (≈ 334 µM). This molecule also gave a half-inhibitory concentration (IC50) in the data set on Staphylococcus aureus [14] of 125 µg/mL (≈ 418 µM). The ED50 with Staphylococcus aureus [7] (Staphylococcus aureus) is more than 200 mg/kg.
